ChEMBL document CHEMBL1131870, “The inhibition of human cytomegalovirus (hCMV) protease by hydroxylamine derivatives” (Bioorg Med Chem Lett, 1999)

Target: T1, Capsid scaffolding protein (Human cytomegalovirus (strain AD169) (HHV-5) (Human herpesvirus 5), UniProt P16753)
T1 sequence (P16753 whole entry): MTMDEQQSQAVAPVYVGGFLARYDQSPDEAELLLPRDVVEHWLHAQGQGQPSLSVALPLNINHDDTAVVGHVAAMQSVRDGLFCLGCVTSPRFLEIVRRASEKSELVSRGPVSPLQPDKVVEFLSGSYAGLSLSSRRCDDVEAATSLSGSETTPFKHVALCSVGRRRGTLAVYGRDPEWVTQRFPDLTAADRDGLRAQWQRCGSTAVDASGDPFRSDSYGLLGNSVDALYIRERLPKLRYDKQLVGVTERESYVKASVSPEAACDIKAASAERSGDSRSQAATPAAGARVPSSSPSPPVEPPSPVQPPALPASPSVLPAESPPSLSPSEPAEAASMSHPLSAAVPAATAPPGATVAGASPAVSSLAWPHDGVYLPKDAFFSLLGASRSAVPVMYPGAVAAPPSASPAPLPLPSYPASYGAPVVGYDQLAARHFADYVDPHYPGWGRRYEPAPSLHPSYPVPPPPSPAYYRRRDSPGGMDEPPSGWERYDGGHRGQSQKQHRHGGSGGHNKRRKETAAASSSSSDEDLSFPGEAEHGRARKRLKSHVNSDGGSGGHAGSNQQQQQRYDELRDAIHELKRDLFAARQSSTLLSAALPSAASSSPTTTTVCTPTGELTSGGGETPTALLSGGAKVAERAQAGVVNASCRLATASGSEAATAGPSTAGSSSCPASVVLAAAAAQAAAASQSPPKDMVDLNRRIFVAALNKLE
Assay: Inhibitory activity against Human Cytomegalovirus (hCMV) protease
Parameters: species or system Human betaherpesvirus 5

| Compound | IC50 [nM] |
| --- | --- |
| Cc1csc2nc(Cc3ccc(C(=O)c4ccccc4)cc3)oc(=O)c12 | 800 |
| CONc1cccc(C(=O)Nc2cccc(Cc3nc4scc(C)c4c(=O)o3)c2)c1 | 2200 |
| Cc1csc2nc(Cc3ccc(C(=O)c4cccc(/N=[N+](\[O-])c5cccc(C(=O)c6ccc(Cc7nc8scc(C)c8c(=O)o7)cc6)c5)c4)cc3)oc(=O)c12 | > 33000 |
| Cc1ccc(C(=O)c2cccc(NO)c2)cc1 | 3700 |
| CC(=O)N(O)c1cccc(C(=O)c2ccc(Cc3nc4scc(C)c4c(=O)o3)cc2)c1 | 1100 |
| CC(=O)c1cccc(NO)c1 | 11000 |
| Cc1csc2nc(Cc3cccc(NC(=O)c4ccccc4)c3)oc(=O)c12 | 1500 |
| CC(=O)ON(C(C)=O)c1cccc(C(=O)c2ccc(Cc3nc4scc(C)c4c(=O)o3)cc2)c1 | 1400 |
| Cc1csc2nc(Cc3ccc(C(=O)c4cccc(N=O)c4)cc3)oc(=O)c12 | 55 |
| Cc1csc2nc(Cc3ccc(C(=O)c4ccc(NO)cc4)cc3)oc(=O)c12 | 14 |
| Cc1csc2nc(Cc3ccc(C(=O)c4ccc(CO)cc4)cc3)oc(=O)c12 | 940 |
| Cc1csc2nc(Cc3cccc(NC(=O)c4ccc(NN)cc4)c3)oc(=O)c12 | 2400 |
| Cc1csc2nc(Cc3ccc(C(=O)c4cccc(CO)c4)cc3)oc(=O)c12 | 1100 |
| Cc1csc2nc(Cc3cccc(NC(=O)c4ccc(NO)cc4)c3)oc(=O)c12 | 61 |
| Cc1csc2nc(Cc3cccc(NC(=O)c4cccc(NN)c4)c3)oc(=O)c12 | 3800 |
| Cc1csc2nc(Cc3ccc(C(=O)c4cccc(NO)c4)cc3)[nH]c(=O)c12 | 2000 |
| ONc1ccccc1 | 9000 |
| Cc1csc2nc(Cc3cccc(NC(=O)c4cccc(NO)c4)c3)oc(=O)c12 | 45 |
| Cc1csc2nc(Cc3ccc(C(=O)c4cccc([N+](=O)[O-])c4)cc3)oc(=O)c12 | 3500 |
| Cc1csc2nc(Cc3ccc(C(=O)c4cccc(N)c4)cc3)oc(=O)c12 | 1000 |
| Cc1csc2nc(Cc3ccc(C(=O)c4cccc(NO)c4)cc3)oc(=O)c12 | 19 |
| Cc1csc2nc(Cc3ccc(C(=O)c4ccccc4)cc3)[nH]c(=O)c12 | > 33000 |
| NO [HYDROXYLAMMONIUM CHLORIDE] | > 33000 |
